Results taken from the NIST ThermoML archive (doi:10.1021/je700308j).
Values joined by “and” are separate entries in the source; they are usually repeats but may differ in a detail not shown here. Identical values can stand only once.

Experiments:
[1] = excess molar enthalpy (molar enthalpy of mixing); xn = mol fraction of the nth substance listed; details: 101 kPa, Liquid, Flow calorimetry
[2] = heat capacity at constant pressure per volume; xn = mol fraction of the nth substance listed; details: 298.15 K, 101 kPa, Liquid, Flow calorimetry
[3] = xn = mol fraction of the nth substance listed; details: 298.15 K, 101 kPa, Liquid

C1CCCC1 [cyclopentane] + CCCCCCCCO
[1], 298.15 K
Details | excess molar enthalpy [kcal/mol]
x1 = 0.157 | 0.0349
x1 = 0.295 | 0.0632
x1 = 0.418 | 0.0844
x1 = 0.528 | 0.0971
x1 = 0.626 | 0.104
x1 = 0.715 | 0.105
x1 = 0.796 | 0.0987
x1 = 0.87 | 0.0889
x1 = 0.938 | 0.0725
x1 = 0.97 | 0.0576

C1CCCC1 [cyclopentane] + CCCCCCCCCCO
excess molar enthalpy, [1]
Details | x1 = 0.336 | x1 = 0.465 | x1 = 0.575 | x1 = 0.67 | x1 = 0.752 | x1 = 0.89 | x1 = 0.975
298.15 K | 0.0786 kcal/mol and 0.0778 kcal/mol | 0.0965 kcal/mol | 0.104 kcal/mol | 0.105 kcal/mol | 0.101 kcal/mol | 0.0851 kcal/mol | –
298.65 K | – | – | – | – | – | – | 0.0495 kcal/mol

C1CCCC1 [cyclopentane] + CCCCO
[1], 298.15 K
Details | excess molar enthalpy
x1 = 0.098 | 0.022 kcal/mol
x1 = 0.196 | 0.0427 kcal/mol
x1 = 0.294 | 0.0637 kcal/mol
x1 = 0.393 | 0.0857 kcal/mol and 0.0846 kcal/mol
x1 = 0.493 | 0.104 kcal/mol
x1 = 0.593 | 0.118 kcal/mol
x1 = 0.694 | 0.124 kcal/mol
x1 = 0.796 | 0.116 kcal/mol
x1 = 0.897 | 0.0941 kcal/mol
x1 = 0.949 | 0.0739 kcal/mol

CCCCCCO [hexan-1-ol] + C1CCOC1
Details | heat capacity, [2] [J/K/m3] | mass density, [3] [kg/m3]
x2 = 0.1191 | 1886000 | 820.48
x2 = 0.1994 | 1862000 | 824.38
x2 = 0.3032 | 1829000 | 829.77
x2 = 0.3931 | 1800000 | 834.74
x2 = 0.505 | 1759000 | 841.56
x2 = 0.6028 | 1719000 | 848.03
x2 = 0.6944 | 1678000 | 854.68
x2 = 0.7937 | 1628000 | 862.57
x2 = 0.8961 | 1574000 | 871.63

C1CCCC1 [cyclopentane] + CCCCCCCCCO
[1], 298.15 K
Details | excess molar enthalpy [kcal/mol]
x1 = 0.171 | 0.0418
x1 = 0.316 | 0.0712
x1 = 0.442 | 0.091
x1 = 0.552 | 0.101
x1 = 0.649 | 0.104
x1 = 0.735 | 0.102
x1 = 0.812 | 0.0962
x1 = 0.881 | 0.0862
x1 = 0.943 | 0.07
x1 = 0.972 | 0.0548

CCCCCCCCC [nonane] + C1CCOC1
[1], 298.15 K
Details | excess molar enthalpy
x2 = 0.104 | 0.0714 kcal/mol
x2 = 0.197 | 0.124 kcal/mol
x2 = 0.355 | 0.189 kcal/mol
x2 = 0.485 | 0.213 kcal/mol
x2 = 0.595 | 0.212 kcal/mol
x2 = 0.688 | 0.195 kcal/mol
x2 = 0.768 | 0.169 kcal/mol
x2 = 0.837 | 0.134 kcal/mol
x2 = 0.898 | 0.0974 kcal/mol
x2 = 0.952 | 0.0514 kcal/mol and 0.0513 kcal/mol

C1CCOC1 [tetrahydrofuran] + CCCCCCCCO
Details | heat capacity, [2] [J/K/m3] | mass density, [3] [kg/m3]
x1 = 0.0608 | 1927000 | 823.33
x1 = 0.088 | 1918000 | 824.18
x1 = 0.1954 | 1884000 | 827.86
x1 = 0.3048 | 1850000 | 832.05
x1 = 0.4026 | 1817000 | 836.34
x1 = 0.5009 | 1781000 | 841.27
x1 = 0.6069 | 1737000 | 847.37
x1 = 0.7044 | 1691000 | 853.86
x1 = 0.7994 | 1640000 | 861.36
x1 = 0.9 | 1580000 | 870.65
x1 = 0.9523 | 1546000 | 876.26

C1CCOC1 [tetrahydrofuran] + CCCO
Details | heat capacity, [2] [J/K/m3] | mass density, [3] [kg/m3]
x1 = 0.0482 | 1911000 | 804.27
x1 = 0.103 | 1891000 | 809.19
x1 = 0.1944 | 1858000 | 817.24
x1 = 0.3022 | 1819000 | 826.44
x1 = 0.3994 | 1782000 | 834.52
x1 = 0.499 | 1742000 | 842.64
x1 = 0.5994 | 1699000 | 850.66
x1 = 0.7016 | 1654000 | 858.7
x1 = 0.795 | 1610000 | 866.01
x1 = 0.9017 | 1560000 | 874.29
x1 = 0.9435 | 1541000 | 877.53

C1CCOC1 [tetrahydrofuran] + CCCCO
Details | heat capacity, [2] [J/K/m3] | mass density, [3] [kg/m3]
x1 = 0.0456 | 1918000 | 808.89
x1 = 0.0951 | 1901000 | 812.34
x1 = 0.1935 | 1867000 | 819.24
x1 = 0.2997 | 1830000 | 826.84
x1 = 0.3963 | 1794000 | 833.86
x1 = 0.5009 | 1753000 | 841.67
x1 = 0.5988 | 1711000 | 849.16
x1 = 0.6962 | 1667000 | 856.68
x1 = 0.8012 | 1615000 | 865.12
x1 = 0.9017 | 1564000 | 873.45
x1 = 0.9472 | 1541000 | 877.34

C1CCOC1 [tetrahydrofuran] + CO
Details | heat capacity, [2] [J/K/m3] | mass density, [3] [kg/m3]
x1 = 0.0989 | 1907000 | 804.78
x1 = 0.195 | 1850000 | 819.46
x1 = 0.2967 | 1797000 | 832.35
x1 = 0.4006 | 1747000 | 843.35
x1 = 0.4848 | 1714000 | 851
x1 = 0.5999 | 1667000 | 859.93
x1 = 0.6968 | 1631000 | 866.37
x1 = 0.7926 | 1594000 | 871.94
x1 = 0.8946 | 1555000 | 877.17

C1CCCC1 [cyclopentane] + CCCCCCCO
[1], 298.15 K
Details | excess molar enthalpy
x1 = 0.143 | 0.0296 kcal/mol
x1 = 0.273 | 0.0554 kcal/mol
x1 = 0.392 | 0.0786 kcal/mol
x1 = 0.5 | 0.0937 kcal/mol
x1 = 0.6 | 0.104 kcal/mol
x1 = 0.692 | 0.106 kcal/mol
x1 = 0.778 | 0.102 kcal/mol
x1 = 0.857 | 0.0921 kcal/mol and 0.0923 kcal/mol
x1 = 0.931 | 0.075 kcal/mol
x1 = 0.966 | 0.0603 kcal/mol

CCCCCCCO [heptan-1-ol] + C1CCOC1
Details | heat capacity, [2] [J/K/m3] | mass density, [3] [kg/m3]
x2 = 0.1103 | 1888000 | 822.54
x2 = 0.2085 | 1859000 | 826.55
x2 = 0.3123 | 1827000 | 831.18
x2 = 0.4046 | 1797000 | 835.76
x2 = 0.496 | 1765000 | 840.88
x2 = 0.5973 | 1725000 | 847.05
x2 = 0.6977 | 1680000 | 854.06
x2 = 0.8031 | 1627000 | 862.49
x2 = 0.9021 | 1572000 | 871.51

CCCCCCCCCCO [decan-1-ol] + C1CCOC1
Details | heat capacity, [2] [J/K/m3] | mass density, [3] [kg/m3]
x2 = 0.0904 | 1904000 | 828.17
x2 = 0.2067 | 1869000 | 831.12
x2 = 0.3967 | 1810000 | 837.35
x2 = 0.5985 | 1734000 | 846.59
x2 = 0.7992 | 1635000 | 860.14
x2 = 0.8981 | 1573000 | 869.46

CCCCCCCCCO [nonan-1-ol] + C1CCOC1
[3]
Details | mass density [kg/m3]
x2 = 0.1048 | 827.19
x2 = 0.1889 | 829.58
x2 = 0.3131 | 833.79
x2 = 0.4067 | 837.47
x2 = 0.504 | 841.9
x2 = 0.6004 | 847.05
x2 = 0.7009 | 853.33
x2 = 0.7999 | 860.89
x2 = 0.9015 | 870.34

C1CCCC1 [cyclopentane] + CCCCCCO
[1], 298.15 K
Details | excess molar enthalpy
x1 = 0.128 | 0.0277 kcal/mol
x1 = 0.249 | 0.0484 kcal/mol
x1 = 0.362 | 0.0707 kcal/mol
x1 = 0.469 | 0.0894 kcal/mol and 0.0897 kcal/mol
x1 = 0.57 | 0.102 kcal/mol
x1 = 0.665 | 0.108 kcal/mol
x1 = 0.756 | 0.105 kcal/mol
x1 = 0.841 | 0.0954 kcal/mol
x1 = 0.923 | 0.0778 kcal/mol
x1 = 0.962 | 0.0619 kcal/mol

C1CCOC1 [tetrahydrofuran] + CCO
Details | heat capacity, [2] [J/K/m3] | mass density, [3] [kg/m3]
x1 = 0.0532 | 1907000 | 792.12
x1 = 0.0989 | 1889000 | 798.14
x1 = 0.2018 | 1849000 | 810.67
x1 = 0.3084 | 1808000 | 822.54
x1 = 0.4 | 1772000 | 832.02
x1 = 0.5015 | 1731000 | 841.8
x1 = 0.6074 | 1688000 | 851.3
x1 = 0.711 | 1643000 | 860.02
x1 = 0.8104 | 1599000 | 867.85
x1 = 0.9048 | 1556000 | 875.03
x1 = 0.9426 | 1540000 | 877.76

C1CCCC1 [cyclopentane] + CCCCCO
[1], 298.15 K
Details | excess molar enthalpy [kcal/mol]
x1 = 0.113 | 0.0229
x1 = 0.223 | 0.0451
x1 = 0.33 | 0.0674
x1 = 0.434 | 0.0882
x1 = 0.535 | 0.105
x1 = 0.633 | 0.115
x1 = 0.728 | 0.115
x1 = 0.821 | 0.105
x1 = 0.912 | 0.0849
x1 = 0.956 | 0.0674
